Data taken from ChEMBL document CHEMBL4811248, “Discovery of imidazopyrrolopyridines derivatives as novel and selective inhibitors of JAK2” (Eur J Med Chem, 2021).
Values after ≈ are worked out from the molar mass of the structure shown.

Experiments:
[1] = Clearance in Lewis rat at 1 mg/kg, iv measured up to 24 hrs by LC-MS/MS method; assay type: ADME, organism-based; conditions: in vivo
[2] = Cmax in Lewis rat at 5 mg/kg, po measured up to 24 hrs by LC-MS/MS method; assay type: ADME, organism-based; set-up: route oral, dose 5 mg/kg, time <=24; conditions: in vivo
[3] = Distribution coefficient between octanol and aqueous buffer, logD of the compound in pH 7.2 buffer
[4] = AUC in Lewis rat at 5 mg/kg, po measured up to 24 hrs by LC-MS/MS method; assay type: ADME, organism-based; set-up: route oral, dose 5 mg/kg, time <=24; conditions: in vivo
[5] = Half life in Lewis rat at 1 mg/kg, iv measured up to 24 hrs by LC-MS/MS method; assay type: ADME, organism-based; conditions: in vivo
[6] = Volume of distribution at steady state in Lewis rat at 5 mg/kg, po measured up to 24 hrs by LC-MS/MS method; assay type: ADME, organism-based; conditions: in vivo
[7] = Volume of distribution at steady state in Lewis rat at 1 mg/kg, iv measured up to 24 hrs by LC-MS/MS method; assay type: ADME, organism-based; conditions: in vivo, read-out: Vdss
[8] = AUC in Lewis rat at 1 mg/kg, iv measured up to 24 hrs by LC-MS/MS method; assay type: ADME, organism-based; set-up: route intravenous, dose 1 mg/kg, time <=24; conditions: in vivo
[9] = MRT in Lewis rat at 1 mg/kg, iv measured up to 24 hrs by LC-MS/MS method; assay type: ADME, organism-based; conditions: in vivo
[10] = Aqueous solubility of compound by HPLC analysis; assay type: physicochemical; conditions: buffer
[11] = Tmax in Lewis rat at 5 mg/kg, po measured up to 24 hrs by LC-MS/MS method; assay type: ADME, organism-based; conditions: in vivo
[12] = Clearance in Lewis rat at 5 mg/kg, po measured up to 24 hrs by LC-MS/MS method; assay type: ADME, organism-based; conditions: in vivo
[13] = Half life in Lewis rat at 5 mg/kg, po measured up to 24 hrs by LC-MS/MS method; assay type: ADME, organism-based; conditions: in vivo
[14] = Metabolic stability in rat liver microsomes assessed as compound remaining at 1 uM measured up to 120 mins in presence of NADPH by HPLC-MS/MS analysis; assay type: ADME, Microsome; conditions: read-out: Stabilty
[15] = Oral bioavailability in Lewis rat at 5 mg/kg measured up to 24 hrs by LC-MS/MS method; assay type: ADME, organism-based; conditions: in vivo
[16] = MRT in Lewis rat at 5 mg/kg, po measured up to 24 hrs by LC-MS/MS method; assay type: ADME, organism-based; conditions: in vivo

clearance [1]: 10.5 mL/min/kg
Cmax [2]: 659 ng/mL
logD [3]: 0.24
AUC at 24 h [4]: 3610 ng·h/mL
half-life [5]: 1.96 h
Vdss [6]: 4.88 L/kg
Vd [7]: 1.8 L/kg
AUC at 24 h [8]: 1590 ng·h/mL
MRT [9]: 1.34 h
solubility [10]: 16.3 µg/mL (≈ 43.9 µM)
Tmax [11]: 1 h
clearance [12]: 23.2 mL/min/kg
half-life [13]: 2.43 h
remaining at 2 h, 1 µM [14]: 96.1%
bioavailability [15]: 45.5%
MRT [16]: 4.36 h
Compound: CCS(=O)(=O)N1CC(CC#N)(n2cc(-c3ncnc4[nH]ccc34)cn2)C1 [BARICITINIB]
